Activity calls are given as the source filed them. The calls are words filed in the database; no cut-off is given here.
Assays:
BaF3 [1] = assay: Antitumor activity against mouse BA/F3 cells expressing Bcr-Abl T315I mutant allografted in mouse assessed as tumor regression at 30 mg/kg, qd for 16 days; assay type: functional, organism-based
BaF3 [2] = assay: Induction of apoptosis in mouse BA/F3 cells expressing Bcr-Abl T315I mutant assessed as late apoptotic cells after 24 hrs using annexin-V/7-AAD staining by FACS analysis; assay type: functional, cell-based
BaF3 [3] = assay: Induction of apoptosis in mouse BA/F3 cells expressing Bcr-Abl T315I mutant assessed as early apoptotic cells at 4 nM after 24 hrs using annexin-V/7-AAD staining by FACS analysis (reference value: 4.6%); assay type: functional
BaF3 [4] = assay: Induction of apoptosis in mouse BA/F3 cells expressing Bcr-Abl T315I mutant assessed as early apoptotic cells at 20 nM after 24 hrs using annexin-V/7-AAD staining by FACS analysis (reference value: 4.6%); assay type: functional
K562 [5] = assay: Cell cycle arrest in human K562 cells expressing wild type Bcr-Abl assessed as accumulation at G0/G1 phase at 100 nM after 24 hrs using propidium iodide staining by flow cytometry (reference value: 64.03%); assay type: functional
[6] = Antiproliferative activity against mouse BA/F3 cells expressing wild type Bcr-Abl after 72 hrs by CCK-8 assay; assay type: functional, cell-based; conditions: BaF3, 72 h
K562 [7] = assay: Induction of apoptosis in human K562 cells expressing wild type Bcr-Abl assessed as late apoptotic cells at 4 nM after 24 hrs using annexin-V/7-AAD staining by FACS analysis (reference value: 2.1%); assay type: functional
[8] = tested on: Tyrosine-protein kinase ABL1 (Mus musculus), P00520 [T315I]; assay: Inhibition of Bcr-Abl T315I mutant in mouse BA/F3 cells assessed as reduction of STAT5 phosphorylation at 4 to 500 nM after 4 hrs by Western blot analysis; assay type: cell-based; conditions: BaF3
Chain of Tyrosine-protein kinase ABL1 (Mus musculus), P00520 [T315I] (P00520 whole entry T315I, the tested form may be a part): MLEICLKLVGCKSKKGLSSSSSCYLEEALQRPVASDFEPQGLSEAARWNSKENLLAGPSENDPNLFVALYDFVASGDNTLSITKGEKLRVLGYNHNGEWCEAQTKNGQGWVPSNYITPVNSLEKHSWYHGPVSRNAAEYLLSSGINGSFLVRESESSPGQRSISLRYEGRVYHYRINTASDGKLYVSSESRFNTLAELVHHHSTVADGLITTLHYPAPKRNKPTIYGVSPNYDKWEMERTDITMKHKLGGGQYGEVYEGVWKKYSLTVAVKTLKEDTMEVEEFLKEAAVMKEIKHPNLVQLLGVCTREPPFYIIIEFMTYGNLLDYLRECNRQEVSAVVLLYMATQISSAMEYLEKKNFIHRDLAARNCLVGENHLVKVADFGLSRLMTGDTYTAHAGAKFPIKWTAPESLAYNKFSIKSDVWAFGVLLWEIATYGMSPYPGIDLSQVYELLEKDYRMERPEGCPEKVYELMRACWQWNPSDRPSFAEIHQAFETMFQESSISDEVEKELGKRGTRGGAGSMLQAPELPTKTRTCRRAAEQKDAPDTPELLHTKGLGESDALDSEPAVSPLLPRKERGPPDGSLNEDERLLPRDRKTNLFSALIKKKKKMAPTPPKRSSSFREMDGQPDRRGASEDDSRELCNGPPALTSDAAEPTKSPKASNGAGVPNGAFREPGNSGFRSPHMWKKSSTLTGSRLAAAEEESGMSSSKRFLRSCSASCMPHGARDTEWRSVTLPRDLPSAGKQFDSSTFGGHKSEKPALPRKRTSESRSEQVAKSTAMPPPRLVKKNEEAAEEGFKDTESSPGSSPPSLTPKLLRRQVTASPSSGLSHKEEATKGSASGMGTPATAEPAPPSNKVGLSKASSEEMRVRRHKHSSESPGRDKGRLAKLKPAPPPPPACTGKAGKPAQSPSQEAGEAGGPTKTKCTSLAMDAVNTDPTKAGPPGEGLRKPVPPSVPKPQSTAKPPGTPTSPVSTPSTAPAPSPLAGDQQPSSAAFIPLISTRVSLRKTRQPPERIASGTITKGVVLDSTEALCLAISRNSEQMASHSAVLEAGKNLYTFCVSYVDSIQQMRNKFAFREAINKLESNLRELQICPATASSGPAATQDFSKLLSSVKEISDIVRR

Bcr/Abl fusion protein = Bcr/Abl fusion protein (Homo sapiens, UniProt P00519, T315I); assay type: protein assay
BaF3 [9] = assay: Antitumor activity against mouse BA/F3 cells expressing Bcr-Abl T315I mutant allografted in mouse assessed as tumor growth inhibition at 10 mg/kg, qd for 16 days; assay type: functional, organism-based
K562 [10] = assay: Induction of apoptosis in human K562 cells expressing wild type Bcr-Abl assessed as late apoptotic cells at 0.8 nM after 24 hrs using annexin-V/7-AAD staining by FACS analysis (reference value: 2.1%); assay type: functional
BaF3 [11] = assay: Induction of apoptosis in mouse BA/F3 cells expressing Bcr-Abl T315I mutant assessed as late apoptotic cells at 100 nM after 24 hrs using annexin-V/7-AAD staining by FACS analysis (reference value: 2.2%); assay type: functional
BaF3 [12] = assay: Induction of apoptosis in mouse BA/F3 cells expressing Bcr-Abl T315I mutant assessed as early apoptotic cells after 24 hrs using annexin-V/7-AAD staining by FACS analysis; assay type: functional, cell-based
[13] = Cell cycle arrest in mouse BA/F3 cells expressing Bcr-Abl T315I mutant assessed as accumulation at G0/G1 phase after 24 hrs using propidium iodide staining by flow cytometry; assay type: functional, cell-based; conditions: BaF3
K562 [14] = assay: Induction of apoptosis in human K562 cells expressing wild type Bcr-Abl assessed as late apoptotic cells at 100 nM after 24 hrs using annexin-V/7-AAD staining by FACS analysis (reference value: 2.1%); assay type: functional
BaF3 [15] = assay: Antitumor activity against mouse BA/F3 cells expressing Bcr-Abl T315I mutant allografted in po dosed mouse assessed as tumor growth inhibition administered qd for 16 days; assay type: functional, organism-based
BaF3 [16] = assay: Induction of apoptosis in mouse BA/F3 cells expressing Bcr-Abl T315I mutant assessed as early apoptotic cells at 500 nM after 24 hrs using annexin-V/7-AAD staining by FACS analysis (reference value: 4.6%); assay type: functional
K562 [17] = assay: Cell cycle arrest in human K562 cells expressing wild type Bcr-Abl assessed as accumulation at G0/G1 phase after 24 hrs using propidium iodide staining by flow cytometry; assay type: functional, cell-based

Cc1cn(-c2cc(NC(=O)c3ccc(C)c(C#Cc4cnc(NC5CC5)nc4)c3)cc(C(F)(F)F)c2)cn1
Activity (BaF3 [1]): Active | Activity (BaF3 [2]): Dose-dependent effect | Activity (BaF3 [3]): 5.8% | Activity (BaF3 [4]): 6.6% | Activity (K562 [5]): 91.44% | IC50 [6]: 2 nM | Activity (K562 [7]): 2% | inhibition [8]: Active | IC50 (Bcr/Abl fusion protein): 9 nM | Activity (BaF3 [9]): inactive | Activity (K562 [10]): 1.7% | Activity (BaF3 [11]): 4% | Activity (BaF3 [12]): Dose-dependent effect | Activity [13]: Dose-dependent effect | Activity (K562 [14]): 9% | growth inhibition (GI) (BaF3 [15]): Dose-dependent effect | Activity (BaF3 [16]): 10.2% | Activity (K562 [17]): Dose-dependent effect
